Source: US12636275B2, “Pharmaceutical use of ketoamide-based compound” (Shanghai Institute of Materia Medica, Chinese Academy of …, priority 2020, dated 2026)

Molecular target: T1, 2019-nCoV 3CL protease (Severe acute respiratory syndrome coronavirus 2, UniProt P0DTD1)
T1 construct: against 3CL protease of 2019 novel coronavirus (2019-nCoV 3CL^pro)
Experiment: Inhibitory activity against 3CL protease of 2019 novel coronavirus (FRET)
Format: biochemical
Conditions: FRET, 37° C., substrate 20 μM
Procedure: To determine the inhibitory activity of the compound against 3CL protease of 2019 novel coronavirus (2019-nCoV 3CL^pro): the enzyme level inhibitory activity of inhibitors against 3CL protease was determined by fluorescence resonance energy transfer (FRET) technology. In a 96-well plate, 27.5 μL of buffer (20 mM Tris, 100 mM NaCl, 1 mM EDTA, pH 7.4) was added to each well, 2.5 μL compounds ([…], respectively) and 5 μL […] (final concentration was 3 μM) were added at the same time. Incubated at 37° C. for 15 min. Then 15 μL fluorescent substrate diluted with buffer (final concentration was 20 μM) was added. The fluorescence parameters were determined by Ge n5 fluorescence spectrophotometer. The excitation wavelength and emission wavelength were 340 nm and 490 nm respectively, kept at 37° C., and the data were read after 10 min. A negative control was used, in which no compound was added to the control, and the rest was the same.

Compound | IC50 [µM]
Cn1c(C(=O)N[C@@H](CC2CCCCC2)C(=O)N[C@@H](C[C@@H]2CCCNC2=O)C(=O)C(=O)NC2CCCCC2)cc2ccccc21 [Example A29, N—((S)-3-cyclohexyl-1-(((S)-4-(cyclohexylamino)-3,4-dione-1-((S)-2-oxopiperidin-3-yl)but-2-yl)amino)-3-cyclohexyl-1-oxopropan-2-yl)-1-methyl-1H-indole-2-carboxamide] | 9.8
CC(C)(C)NC(=O)C(=O)[C@H](C[C@@H]1CCCNC1=O)NC(=O)[C@H](CC1CCCCC1)NC(=O)c1cc2ccccc2[nH]1 [Example A6, N—((S)-1-(((S)-4-(tert-butylamino)-3,4-dione-1-((S)-2-oxopiperidin-3-yl)but-2-yl)amino)-3-cyclohexyl-1-oxopropan-2-yl)-1H-indole-2-carboxamide] | 25.3
O=C(NCc1ccccc1)C(=O)[C@H](C[C@@H]1CCNC1=O)NC(=O)[C@H](Cc1ccccc1)NC(=O)c1cn2cc(Br)ccc2n1 [Example A156] | 4.7
CC(C)C[C@H](NC(=O)c1cc2c(Cl)cc(Cl)cc2[nH]1)C(=O)N[C@@H](C[C@@H]1CCNC1=O)C(=O)C(=O)NC(C)(C)C [Example A115] | 6.5
O=C(NCc1ccc(-c2ccccc2)cc1)C(=O)[C@H](C[C@@H]1CCCNC1=O)NC(=O)[C@H](CC1CCCCC1)NC(=O)c1cc2ccccc2o1 [Example A275] | 5.8
O=C(NCc1ccccc1)C(=O)[C@H](C[C@@H]1CCNC1=O)NC(=O)[C@H](CC1CCCCC1)NC(=O)c1cc2ccccc2s1 [Example A17, N—((S)-1-(((S)-4-(benzylamino)-3,4-dione-1-((S)-2-oxopyrrolidin-3-yl)but-2-yl)amino)-3-cyclohexyl-1-oxopropan-2-yl)-benzothiophene-2-carboxamide] | 12.5
CC(C)NC(=O)CC[C@H](NC(=O)[C@H](Cc1ccccc1)NC(=O)c1cnc2ccccc2n1)C(=O)C(=O)NCc1ccccc1 [Example A238] | 4.8
O=C(NCc1ccccc1)C(=O)[C@H](C[C@@H]1CCCNC1=O)NC(=O)[C@H](CC1CCCCC1)NC(=O)c1cccnn1 [Example A268, N—((S)-1-(((S)-4-(benzylamino)-3,4-dione-1-((S)-2-oxopiperidin-3-yl)but-2-yl)amino)-3-cyclohexyl-1-oxopropan-2-yl)-pyridazine-2-carboxamide] | 5.6
COc1cc(OC)c2cc(C(=O)N[C@@H](Cc3ccccc3)C(=O)N[C@@H](C[C@@H]3CCNC3=O)C(=O)C(=O)NC(C)(C)C)[nH]c2c1 [Example A221, N—((S)-1-(((S)-4-(tert-butylamino)-3,4-dione-1-((S)-2-oxopyrrolidin-3-yl)but-2-yl)amino)-1-oxo-3-phenylpropan-2-yl)-4,6-dimethoxy-1H-indole-2-carboxamide] | 5.8
Cc1ccc(CN(C)C(=O)C(=O)[C@H](C[C@@H]2CCCNC2=O)NC(=O)[C@H](CC2CCCCC2)NC(=O)c2cc3ccccc3o2)cc1 [Example A272, N—((S)-1-(((S)-4-(4-methylbenzylmethylamino)-3,4-dione-1-((S)-2-oxopiperidin-3-yl)but-2-yl)amino)-3-cyclohexyl-1-oxopropan-2-yl)-benzofuran-2-carboxamide] | 4.8
CC(C)(C)NC(=O)C(=O)[C@H](C[C@@H]1CCNC1=O)NC(=O)[C@H](Cc1ccccc1)NC(=O)c1cc2ccccc2o1 [Example A291, N—((S)-1-(((S)-4-(tert-butylamino)-3,4-dione-1-((S)-2-oxopyrrolidin-3-yl)but-2-yl)amino)-3-phenyl-1-oxopropan-2-yl)-benzofuran-2-carboxamide] | 15.2
CC(C)NC(=O)CC[C@H](NC(=O)[C@H](CC1CCCCC1)NC(=O)c1cnc2ccccc2n1)C(=O)C(=O)NCc1ccccc1 [Example A236, N—((S)-1-(((S)-4-(benzyl)-3,4-dione-1-(isopropylamino)-2-yl)amino)-3-(cyclohexyl)-1-oxopropan-2-yl)-quinoxaline-2-carboxamide] | 4.5
Cn1c(C(=O)N[C@@H](CC2CCCCC2)C(=O)N[C@@H](C[C@@H]2CCCNC2=O)C(=O)C(=O)NC(C)(C)C)cc2ccccc21 [Example A28, N—((S)-1-(((S)-4-(tert-butylamino)-3,4-dione-1-((S)-2-oxopiperidin-3-yl)but-2-yl)amino)-3-cyclohexyl-1-oxopropan-2-yl)-1-methyl-1H-indole-2-carboxamide] | 15.2
O=C(NC1CCCCC1)C(=O)[C@H](C[C@@H]1CCCNC1=O)NC(=O)[C@H](Cc1ccccc1)NC(=O)c1cc2ccccc2o1 [Example A59] | 23.5
O=C(CC[C@H](NC(=O)[C@H](Cc1ccccc1)NC(=O)c1cnc2ccccc2n1)C(=O)C(=O)NCc1ccccc1)NC1CCCCC1 [Example A239, N—((S)-1-(((S)-4-(benzyl)-3,4-dione-1-(cyclohexylamino)-2-yl)amino)-3-(phenyl)-1-oxopropan-2-yl)-quinoxaline-2-carboxamide] | 3.8
CCOc1ccc2oc(C(=O)N[C@@H](CC3CCCCC3)C(=O)N[C@@H](C[C@@H]3CCCNC3=O)C(=O)C(=O)NCc3ccccc3)cc2c1 [Example A259, N—((S)-1-(((S)-4-(benzylamino)-3,4-dione-1-((S)-2-oxopiperidin-3-yl)but-2-yl)amino)-3-cyclohexyl-1-oxopropan-2-yl)-5-ethoxyl-benzofuran-2-carboxamide] | 9.5
O=C(NC1CCCCC1)C(=O)[C@H](C[C@@H]1CCCNC1=O)NC(=O)[C@H](CC1CCCCC1)NC(=O)c1cc2cccc(Br)c2o1 [Example A257, N—((S)-1-(((S)-4-(cyclohexylamino)-3,4-dione-1-((S)-2-oxopiperidin-3-yl)but-2-yl)amino)-3-cyclohexyl-1-oxopropan-2-yl)-6-bromo-benzofuran-2-carboxamide] | 5.2
O=C(NCc1ccccc1)C(=O)[C@H](C[C@@H]1CCNC1=O)NC(=O)[C@H](Cc1ccc(F)cc1)NC(=O)c1ccc2ccccc2n1 [Example A306, N—((S)-1-(((S)-4-(benzylamino)-3,4-dione-1-((S)-2-oxopyrrolidin-3-yl)but-2-yl)amino)-3-(4-fluorophenyl)-1-oxopropan-2-yl)-quinoline-2-carboxamide] | 6.7
O=C(NCc1ccccc1)C(=O)[C@H](C[C@@H]1CCNC1=O)NC(=O)[C@H](Cc1cccc(F)c1)NC(=O)c1ccc2ccccc2n1 [Example A305, N—((S)-1-(((S)-4-(benzylamino)-3,4-dione-1-((S)-2-oxopyrrolidin-3-yl)but-2-yl)amino)-3-(3-fluorophenyl)-1-oxopropan-2-yl)-quinoline-2-carboxamide] | 8.5
CC(C)C[C@H](NC(=O)c1cc2ccccc2[nH]1)C(=O)N[C@@H](C[C@@H]1CCNC1=O)C(=O)C(=O)NCc1ccccc1 [Example A90, N—((S)-1-(((S)-4-(benzylamino)-3,4-dione-1-((S)-2-oxopyrrolidin-3-yl)but-2-yl)amino)-4-methyl-1-oxopentan-2-yl)-1H-indole-2-carboxamide] | 25.2
O=C(NCc1ccccc1)C(=O)[C@H](C[C@@H]1CCCNC1=O)NC(=O)[C@H](CC1CCCCC1)NC(=O)c1cc2c(F)c(F)ccc2[nH]1 [Example A269, N—((S)-1-(((S)-4-(benzylamino)-3,4-dione-1-((S)-2-oxopiperidin-3-yl)but-2-yl)amino)-3-cyclohexyl-1-oxopropan-2-yl)-4,5-indole-2-carboxamide] | 8.8
C[C@@H](NC(=O)C(=O)[C@H](C[C@@H]1CCNC1=O)NC(=O)[C@H](CC1CCCCC1)NC(=O)c1ccc2ccccc2n1)c1ccccc1 [Example A293] | 26.4
